From paper PMC6218659, “Structures of DPAGT1 Explain Glycosylation Disease Mechanisms and Advance TB Antibiotic Design” (Cell, 2018)

Tests used:
DPAGT1 = target: T1, DPAGT1 (Homo sapiens, UniProt Q9H3H5); test: Radiolabeled substrate enzyme activity assay; assay type: biochemical, H. sapiens; details: WT DPAGT1, non-titrated substrate at 200 μM
T1 construct: H. sapiens DPAGT1 (1-408, N-terminal 6 x HIS tag, TEV cleavage site); 6xHis purification tag with TEV site (N, cleaved yes); made in house; host or cells: Spodoptera frugiperda Sf9 insect cells (baculovirus)
T1 sequence (Q9H3H5 1-408): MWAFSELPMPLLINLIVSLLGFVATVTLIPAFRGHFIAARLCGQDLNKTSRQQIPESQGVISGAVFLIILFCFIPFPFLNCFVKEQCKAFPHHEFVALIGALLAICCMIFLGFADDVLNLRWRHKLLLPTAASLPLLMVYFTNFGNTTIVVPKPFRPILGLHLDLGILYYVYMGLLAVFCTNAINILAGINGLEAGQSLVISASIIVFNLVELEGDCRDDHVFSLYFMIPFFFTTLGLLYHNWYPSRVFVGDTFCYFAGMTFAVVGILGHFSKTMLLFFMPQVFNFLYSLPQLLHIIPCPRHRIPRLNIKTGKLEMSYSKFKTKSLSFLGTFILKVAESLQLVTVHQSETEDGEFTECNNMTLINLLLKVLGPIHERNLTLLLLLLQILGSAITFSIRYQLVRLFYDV
Protocol: 2 μl of 2 μM DPAGT1 WT or mutant proteins in GFB buffer supplemented with 5mM extra MgCl2, 1% OGNG/CHS/cardiolipin and dolichyl monophosphate was combined with 2 μl of UDP-N-acetyl [1-14C] […] The reaction was terminated by the addition of 6 μl of 100% methanol and immediately transferred onto ice. 1 μl of sample was spotted onto a silica coated TLC plate in triplicate and run with a mobile phase consisting of chloroform, methanol, and water at a 65:25:4 ratio respectively. After the run, the TLC plate was dried thoroughly, wrapped in cling film, incubated with a phosphor imaging substrate for 4 days, then phosphor imaged using a Biorad. The pixel density of the spots corresponding to the hydrophobic product was divided by combined pixel density of the product and the substrate and multiplied by the known concentration of substrate added to ascertain the amount of product formed.

DPAGT1 Arg301Cys = target: T2, DPAGT1 Arg301Cys (Homo sapiens, UniProt Q9H3H5, R301C); test: Thermostability assay (label free differential scanning fluorimetry); assay type: binding, H. sapiens; details: 50 μM compound
T2 construct: combined with the LIC-adapted primers to amplify the complete DPAGT1 gene, including the desired mutations; 6xHis purification tag with TEV site (N, cleaved yes); made in house; host or cells: Spodoptera frugiperda Sf9 insect cells (baculovirus)
T2 sequence (Q9H3H5 1-408 R301C): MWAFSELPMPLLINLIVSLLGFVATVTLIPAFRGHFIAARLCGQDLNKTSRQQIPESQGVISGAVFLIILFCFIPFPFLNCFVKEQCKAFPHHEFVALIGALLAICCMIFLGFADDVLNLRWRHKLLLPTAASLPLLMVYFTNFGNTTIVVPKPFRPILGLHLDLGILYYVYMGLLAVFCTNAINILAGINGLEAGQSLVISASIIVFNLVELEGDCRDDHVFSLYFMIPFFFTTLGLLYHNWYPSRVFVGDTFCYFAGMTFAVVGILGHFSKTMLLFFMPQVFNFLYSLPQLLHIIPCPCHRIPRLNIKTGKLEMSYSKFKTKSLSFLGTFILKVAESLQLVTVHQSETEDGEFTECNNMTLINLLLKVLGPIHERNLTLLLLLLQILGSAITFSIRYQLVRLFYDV
Protocol: (§1) Samples with a volume of 40 μl were prepared containing 0.5 mg/ml protein and 50 μM compound or 5% DMSO in GFB. A glass capillary was dipped into each sample, with the capillary held horizontally to ensure that the capillary was full of the sample. The capillaries were placed on the capillary holder on the Nanotemper Prometheus. Technical triplicates of each sample were prepared, and each experiment was conducted with biological triplicates of each protein. PR.ThermControl software was used to run the experiment and analyse the data. A melting curve from 20 °C – 95 °C at 5 °C/min was performed. The minimum of the first derivative of the 330/350nm ratio was used to determine the Tm1/2.

DPAGT1 Arg301His = target: T3, DPAGT1 Arg301His (Homo sapiens, UniProt Q9H3H5, R301H); test: as above; assay type: binding, H. sapiens; details: 50 μM compound
T3 construct: combined with the LIC-adapted primers to amplify the complete DPAGT1 gene, including the desired mutations; 6xHis purification tag with TEV site (N, cleaved yes); made in house; host or cells: Spodoptera frugiperda Sf9 insect cells (baculovirus)
T3 sequence (Q9H3H5 1-408 R301H): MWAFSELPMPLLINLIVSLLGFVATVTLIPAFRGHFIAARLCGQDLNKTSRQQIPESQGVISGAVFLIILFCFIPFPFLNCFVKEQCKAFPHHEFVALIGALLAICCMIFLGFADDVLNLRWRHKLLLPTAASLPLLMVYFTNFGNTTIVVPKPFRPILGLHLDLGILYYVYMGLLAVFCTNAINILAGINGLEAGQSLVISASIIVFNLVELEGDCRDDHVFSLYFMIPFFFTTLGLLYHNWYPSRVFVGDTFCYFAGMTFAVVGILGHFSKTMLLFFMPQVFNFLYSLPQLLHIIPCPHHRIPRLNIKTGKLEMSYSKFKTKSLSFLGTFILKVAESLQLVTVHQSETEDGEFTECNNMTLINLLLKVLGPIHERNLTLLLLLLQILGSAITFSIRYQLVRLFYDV
Protocol: as §1

DPAGT1 Leu168Pro = target: T4, DPAGT1 Leu168Pro (Homo sapiens, UniProt Q9H3H5, L168P); test: as above; assay type: binding, H. sapiens; details: 50 μM compound
T4 construct: combined with the LIC-adapted primers to amplify the complete DPAGT1 gene, including the desired mutations; 6xHis purification tag with TEV site (N, cleaved yes); made in house; host or cells: Spodoptera frugiperda Sf9 insect cells (baculovirus)
T4 sequence (Q9H3H5 1-408 L168P): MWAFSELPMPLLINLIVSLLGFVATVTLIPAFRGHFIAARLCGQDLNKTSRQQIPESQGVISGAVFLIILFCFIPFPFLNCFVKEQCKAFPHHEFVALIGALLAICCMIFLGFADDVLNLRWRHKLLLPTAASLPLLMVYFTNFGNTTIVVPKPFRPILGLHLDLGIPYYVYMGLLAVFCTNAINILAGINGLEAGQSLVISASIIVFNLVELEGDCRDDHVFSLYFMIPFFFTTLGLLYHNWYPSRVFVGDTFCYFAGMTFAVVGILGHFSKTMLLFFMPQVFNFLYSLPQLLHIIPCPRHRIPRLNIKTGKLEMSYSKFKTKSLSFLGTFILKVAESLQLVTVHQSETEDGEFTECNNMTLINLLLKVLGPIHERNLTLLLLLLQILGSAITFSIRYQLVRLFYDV
Protocol: as §1

DPAGT1 Tyr170Cys = target: T5, DPAGT1 Tyr170Cys (Homo sapiens, UniProt Q9H3H5, Y170C); test: as above; assay type: binding, H. sapiens; details: 50 μM compound
T5 construct: combined with the LIC-adapted primers to amplify the complete DPAGT1 gene, including the desired mutations; 6xHis purification tag with TEV site (N, cleaved yes); made in house; host or cells: Spodoptera frugiperda Sf9 insect cells (baculovirus)
T5 sequence (Q9H3H5 1-408 Y170C): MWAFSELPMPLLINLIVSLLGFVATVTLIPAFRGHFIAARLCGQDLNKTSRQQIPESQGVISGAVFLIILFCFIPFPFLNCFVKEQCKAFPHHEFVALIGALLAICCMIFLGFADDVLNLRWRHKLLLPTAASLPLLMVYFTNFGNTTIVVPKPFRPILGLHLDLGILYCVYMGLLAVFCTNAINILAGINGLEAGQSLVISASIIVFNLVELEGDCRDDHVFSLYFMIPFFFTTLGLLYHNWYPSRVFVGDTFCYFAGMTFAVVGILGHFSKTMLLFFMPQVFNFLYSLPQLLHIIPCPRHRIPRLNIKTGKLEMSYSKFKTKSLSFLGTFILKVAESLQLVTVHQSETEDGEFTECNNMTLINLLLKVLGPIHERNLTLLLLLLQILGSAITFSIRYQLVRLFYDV
Protocol: as §1

DPAGT1 Val264Gly = target: T6, DPAGT1 Val264Gly (Homo sapiens, UniProt Q9H3H5, V264G); test: as above; assay type: binding, H. sapiens; details: 50 μM compound
T6 construct: H. sapiens DPAGT1 (1-408, Val264Gly, N-terminal 6 x HIS tag, TEV cleavage site); 6xHis purification tag with TEV site (N, cleaved yes); made in house; host or cells: Spodoptera frugiperda Sf9 insect cells (baculovirus)
T6 sequence (Q9H3H5 1-408 V264G): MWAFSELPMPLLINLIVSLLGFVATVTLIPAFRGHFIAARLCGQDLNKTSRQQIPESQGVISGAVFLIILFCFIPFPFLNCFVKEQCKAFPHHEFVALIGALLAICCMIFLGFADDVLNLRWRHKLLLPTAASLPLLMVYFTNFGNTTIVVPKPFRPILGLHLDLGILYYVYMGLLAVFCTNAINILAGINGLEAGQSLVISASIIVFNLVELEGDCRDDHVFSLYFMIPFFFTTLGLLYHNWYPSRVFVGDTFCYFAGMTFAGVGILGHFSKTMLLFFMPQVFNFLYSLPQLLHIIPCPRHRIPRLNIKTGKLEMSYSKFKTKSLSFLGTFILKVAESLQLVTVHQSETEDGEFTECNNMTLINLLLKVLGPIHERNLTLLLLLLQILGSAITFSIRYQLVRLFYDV
Protocol: as §1

DPAGT1 WT = target: T7, DPAGT1 WT (Homo sapiens, UniProt Q9H3H5); test: as above; assay type: binding, H. sapiens; details: 50 μM compound
T7 construct: H. sapiens DPAGT1 (1-408, N-terminal 6 x HIS tag, TEV cleavage site); 6xHis purification tag with TEV site (N, cleaved yes); made in house; host or cells: Spodoptera frugiperda Sf9 insect cells (baculovirus)
T7 sequence (Q9H3H5 1-408): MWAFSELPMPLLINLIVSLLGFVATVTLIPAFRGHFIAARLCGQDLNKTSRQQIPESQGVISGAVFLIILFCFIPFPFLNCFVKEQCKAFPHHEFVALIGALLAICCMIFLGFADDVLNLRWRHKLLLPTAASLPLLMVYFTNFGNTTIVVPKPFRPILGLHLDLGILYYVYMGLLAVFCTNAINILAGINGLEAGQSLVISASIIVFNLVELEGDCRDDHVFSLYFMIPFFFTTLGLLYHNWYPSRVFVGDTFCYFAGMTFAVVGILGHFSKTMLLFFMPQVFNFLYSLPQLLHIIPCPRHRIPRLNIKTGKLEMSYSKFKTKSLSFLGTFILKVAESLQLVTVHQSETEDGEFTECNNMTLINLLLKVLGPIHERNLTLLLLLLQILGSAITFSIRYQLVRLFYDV
Protocol: as §1

[1] = target: the molecule itself; test: crystal structure; space group P6(5)22, one DPAGT1 monomer in the asymmetric unit; dimer formed through a crystallographic 2-fold axis; apo WT, apo Val264Gly and Val264Gly complexes with UDP-GlcNAc/Mg2+ or tunicamycin
[2] = target: the molecule itself; test: native MS; purified DPAGT1 diluted to 10 uM, buffer exchanged into 200 mM ammonium acetate, 0.16% OGNG; Q Exactive modified for high-mass transmission, positive ion mode

For dolichyl phosphate [Dol-P], the kcat (DPAGT1) was 0.00333 ± 0.0002 s⁻¹, the Km (DPAGT1; read-out: apparent Km) was 36.3 ± 7.2 µM and the “Thermostability (Tm1/2) with added compound” value (from here on “Thermostability”) (DPAGT1 Arg301Cys) was 56.4±0.5 °C. For the same molecule, the “Thermostability” value (DPAGT1 Arg301His) was 56.2±1.2 °C, the “Thermostability” value (DPAGT1 Leu168Pro) was 52.5±0.3 °C and the “Thermostability” value (DPAGT1 Tyr170Cys) was 54.0±1.0 °C. The “Thermostability” value (DPAGT1 Val264Gly) was 57.2±0.2 °C and the “Thermostability” value (DPAGT1 WT) was 58.5 °C.

B1: H. sapiens DPAGT1 (1-408, Val264Gly, N-terminal 6 x HIS tag, TEV cleavage site) (enzyme, human, UniProt Q9H3H5 1-408, looked up)
chain: MWAFSELPMPLLINLIVSLLGFVATVTLIPAFRGHFIAARLCGQDLNKTSRQQIPESQGVISGAVFLIILFCFIPFPFLNCFVKEQCKAFPHHEFVALIGALLAICCMIFLGFADDVLNLRWRHKLLLPTAASLPLLMVYFTNFGNTTIVVPKPFRPILGLHLDLGILYYVYMGLLAVFCTNAINILAGINGLEAGQSLVISASIIVFNLVELEGDCRDDHVFSLYFMIPFFFTTLGLLYHNWYPSRVFVGDTFCYFAGMTFAGVGILGHFSKTMLLFFMPQVFNFLYSLPQLLHIIPCPRHRIPRLNIKTGKLEMSYSKFKTKSLSFLGTFILKVAESLQLVTVHQSETEDGEFTECNNMTLINLLLKVLGPIHERNLTLLLLLLQILGSAITFSIRYQLVRLFYDV
notes: human DPAGT1, residues 1-408, full length, with the missense variant Val264Gly found in some congenital myasthenic syndrome patients; After TEV cleavage an additional N-terminal serine remains (measured mass 46135 Da); Used for the apo, UDP-GlcNAc and tunicamycin crystal structures; also called Val264Gly DPAGT1; V264G variant; source: Sf9 insect cells (baculovirus), purified (OGNG/CHS extraction, …)
B1: binds [1].

B2: H. sapiens DPAGT1 (1-408, N-terminal 6 x HIS tag, TEV cleavage site), wild type (enzyme, human, UniProt Q9H3H5 1-408, looked up)
chain: MWAFSELPMPLLINLIVSLLGFVATVTLIPAFRGHFIAARLCGQDLNKTSRQQIPESQGVISGAVFLIILFCFIPFPFLNCFVKEQCKAFPHHEFVALIGALLAICCMIFLGFADDVLNLRWRHKLLLPTAASLPLLMVYFTNFGNTTIVVPKPFRPILGLHLDLGILYYVYMGLLAVFCTNAINILAGINGLEAGQSLVISASIIVFNLVELEGDCRDDHVFSLYFMIPFFFTTLGLLYHNWYPSRVFVGDTFCYFAGMTFAVVGILGHFSKTMLLFFMPQVFNFLYSLPQLLHIIPCPRHRIPRLNIKTGKLEMSYSKFKTKSLSFLGTFILKVAESLQLVTVHQSETEDGEFTECNNMTLINLLLKVLGPIHERNLTLLLLLLQILGSAITFSIRYQLVRLFYDV
notes: human dolichyl-phosphate N-acetylglucosamine-phosphotransferase DPAGT1 (E.C. 2.7.8.15), residues 1-408, full-length wild type; After TEV cleavage an additional N-terminal serine remains (measured mass 46177 Da); Integral membrane protein kept in OGNG/CHS/cardiolipin (or DOPG) detergent-lipid buffer; also called WT DPAGT1; GPT; source: Sf9 insect cells (baculovirus), purified (OGNG/CHS extraction, …)
For B2, the “stoichiometry N” value [2] was 2.
